Assay results published in the NIST ThermoML archive (doi:10.1016/j.fluid.2012.11.011).

Test: osmotic coefficient (dimensionless); mn = molality of the nth substance listed, in mol/kg
Settings: 298.15 K, Liquid, isopiestic method

CC1(C)S[C@@H]2[C@H](NC(=O)[C@H](N)c3ccccc3)C(=O)N2[C@H]1C(=O)[O-].[Na+] [Ampicillin Sodium] + O
Settings	osmotic coefficient
2.467 kPa, m1 = 7.468	0.93
2.565 kPa, m1 = 6.773	0.867
2.654 kPa, m1 = 5.991	0.822
2.747 kPa, m1 = 5.699	0.696
2.901 kPa, m1 = 4.439	0.553
2.908 kPa, m1 = 4.261	0.562
2.926 kPa, m1 = 4.103	0.54
2.942 kPa, m1 = 3.839	0.538
2.982 kPa, m1 = 3.301	0.513
3.005 kPa, m1 = 2.932	0.504
3.006 kPa, m1 = 2.958	0.499
3.008 kPa, m1 = 2.867	0.506
3.011 kPa, m1 = 2.855	0.498
3.031 kPa, m1 = 2.397	0.519
3.032 kPa, m1 = 2.398	0.514
3.052 kPa, m1 = 1.912	0.548
3.066 kPa, m1 = 1.699	0.546
3.076 kPa, m1 = 1.476	0.563
3.079 kPa, m1 = 1.392	0.578
3.081 kPa, m1 = 1.369	0.575
3.098 kPa, m1 = 1.134	0.564
3.099 kPa, m1 = 1.093	0.576
3.102 kPa, m1 = 0.9835	0.612
3.103 kPa, m1 = 0.9725	0.612
3.103 kPa, m1 = 1.029	0.578
3.104 kPa, m1 = 1.015	0.576
3.111 kPa, m1 = 0.8951	0.586
3.113 kPa, m1 = 0.8284	0.612
3.113 kPa, m1 = 0.8511	0.591
3.118 kPa, m1 = 0.7369	0.617
3.119 kPa, m1 = 0.6767	0.67
3.119 kPa, m1 = 0.6922	0.651
3.119 kPa, m1 = 0.7007	0.644
3.119 kPa, m1 = 0.7507	0.597
3.13 kPa, m1 = 0.5215	0.672
3.131 kPa, m1 = 0.525	0.654
3.131 kPa, m1 = 0.5325	0.648
3.132 kPa, m1 = 0.47	0.72
3.133 kPa, m1 = 0.4627	0.704
3.139 kPa, m1 = 0.3871	0.705
3.144 kPa, m1 = 0.3032	0.75
3.145 kPa, m1 = 0.3044	0.714
3.155 kPa, m1 = 0.1575	0.856
3.162 kPa, m1 = 0.0754	0.885
3.17 kPa, m1 = 0	1

CC1(C)S[C@@H]2[C@H](NC(=O)Cc3ccccc3)C(=O)N2[C@H]1C(=O)[O-].[Na+] + O
Settings	osmotic coefficient
2.442 kPa, m1 = 9.082	0.796
2.452 kPa, m1 = 9.136	0.779
2.606 kPa, m1 = 7.249	0.749
2.623 kPa, m1 = 7.416	0.708
2.757 kPa, m1 = 5.709	0.678
2.901 kPa, m1 = 3.775	0.652
2.919 kPa, m1 = 3.9	0.585
2.93 kPa, m1 = 3.429	0.636
2.93 kPa, m1 = 3.558	0.612
2.958 kPa, m1 = 3.303	0.582
2.986 kPa, m1 = 2.627	0.63
2.989 kPa, m1 = 2.675	0.61
2.989 kPa, m1 = 2.704	0.603
3.002 kPa, m1 = 2.483	0.608
3.006 kPa, m1 = 2.489	0.592
3.007 kPa, m1 = 2.326	0.629
3.007 kPa, m1 = 2.366	0.62
3.009 kPa, m1 = 2.334	0.618
3.033 kPa, m1 = 2.001	0.612
3.049 kPa, m1 = 1.757	0.616
3.05 kPa, m1 = 1.757	0.61
3.068 kPa, m1 = 1.28	0.705
3.089 kPa, m1 = 1.073	0.672
3.091 kPa, m1 = 1.085	0.647
3.123 kPa, m1 = 0.457	0.903
3.126 kPa, m1 = 0.4044	0.966
3.17 kPa, m1 = 0	1
